Experimental data from ChEMBL document CHEMBL4406899, “Design, synthesis, and biological evaluation of 2-amino-N-(2-methoxyphenyl)-6-((4-nitrophenyl)sulfonyl)benzamide derivatives as potent HIV-1 Vif inhibitors” (Bioorg Med Chem Lett, 2019).

Experiments:
[1] = Cytotoxicity against human H9 cells assessed as reduction in cell viability incubated for 7 days by MTT assay; format: cell-based
[2] = tested on: Human immunodeficiency virus 1; test: Antiviral activity against HIV1 infected in human H9 cells assessed as decrease in p24 antigen production incubated for 7 days by ELISA; format: functional, organism-based; details: Human immunodeficiency virus 1, H9, 168 h
[3] = Selectivity index, ratio of CC50 for human H9 cells to EC50 for antiviral activity against HIV-1; format: toxicity; details: read-out: Ratio CC50/EC50

SMILES	EC50 [2] [µM]	CC50 at 168 h [1] [µM]	selectivity ratio [3]
COc1ccccc1NC(=O)c1c(N)cccc1Sc1ccncc1	176	569	3.23
CS(=O)(=O)Oc1ccccc1NC(=O)c1c(N)cccc1Sc1ccc([N+](=O)[O-])cc1	79.9	422	5.28
COc1ccccc1NC(=O)c1c(N)cccc1Sc1ccc(C(F)(F)F)cc1	24.2	352	14.6
COc1ncccc1NC(=O)c1c(N)cccc1Sc1ccc([N+](=O)[O-])cc1	25.9	182	7.03
COc1ncccc1NC(=O)c1c(N)cccc1S(=O)(=O)c1ccc([N+](=O)[O-])cc1	228		
Nc1cccc(Sc2ccc([N+](=O)[O-])cc2)c1C(=O)Nc1ccccc1I	125	407	3.26
COc1ccccc1NC(=O)c1c(N)cccc1S(=O)(=O)c1ccc(C(=O)O)cc1	235		
COc1ccccc1NC(=O)c1c(N)cccc1S(=O)(=O)c1cc(C)cc(C)c1	244		
COc1ccccc1NC(=O)c1c(N)cccc1Sc1ccc(C(=O)O)cc1	252		
COc1ccccc1NC(=O)c1c(N)cccc1Sc1ccc(F)cc1	44.8	543	15.6
Nc1cccc(S(=O)(=O)c2ccc([N+](=O)[O-])cc2)c1C(=O)Nc1ccccc1I	30.9	382	12.4

The next compounds have a lower EC50 [2] than those just listed; values first:

EC50 [2] [µM]	SMILES	CC50 at 168 h [1] [µM]	selectivity ratio [3]
2.12	COc1ccccc1NC(=O)c1c(N)cccc1Sc1ccc([N+](=O)[O-])cc1	462	263
9.8	Nc1cccc(Sc2ccc([N+](=O)[O-])cc2)c1C(=O)Nc1ccccc1O	153	15.6
20.3	COc1ccc(NC(=O)c2c(N)cccc2Sc2ccc([N+](=O)[O-])cc2)c(OC)c1	82.5	4.06
4.62	COc1ccccc1NC(=O)c1c(N)cccc1S(=O)(=O)c1ccc(C(F)(F)F)cc1	444	96.5
9.6	COc1ccccc1NC(=O)c1c(N)cccc1Sc1cc(C)cc(C)c1	181	18.9
12.3	COc1ccccc1NC(=O)c1c(N)cccc1S(=O)(=O)c1ccc(F)cc1	499	53.7
15.1	Nc1ccccc1NC(=O)c1c(N)cccc1Sc1ccc([N+](=O)[O-])cc1	427	28.3
